Data as given in publication PMC5218480 (PLoS ONE, 2017).

System: MV-4-11 cells
Assay: Gene expression microarray analysis (Affymetrix PrimeView) and GSEA
Assay type: cell-based, human
Design: RFU PODN (11730768_x_at) / Fold change /veh PODN (11730768_x_at) / RFU LINC00158 (11744669_a_at) / Fold change /veh LINC00158 (11744669_a_at) / RFU DUSP10 (11751237_a_at) / Fold change /veh DUSP10 (11751237_a_at) / RFU ID3 (11757404_x_at) / Fold change /veh ID3 (11757404_x_at) / RFU PLEKHG5 (11737974_s_at) / Fold change /veh PLEKHG5 (11737974_s_at) / RFU LRRC4B (11730491_at) / Fold change /veh LRRC4B (11730491_at) / RFU GIMAP4 (11747438_a_at) / Fold change /veh GIMAP4 (11747438_a_at) / RFU KRT8 (11758183_x_at) / Fold change /veh KRT8 (11758183_x_at) / RFU CNN1 (11734310_a_at) / Fold change /veh CNN1 (11734310_a_at) / RFU VPS37D (11726825_at) / Fold change /veh VPS37D (11726825_at) / RFU C10orf10 (11716522_x_at) / Fold change /veh C10orf10 (11716522_x_at) / RFU KIR2DL2 /// KIR2DL4 /// KIR2DL5A /// KIR2DL5B /// KIR2DS1 /// KIR2DS2 /// KIR2DS3 /// KIR2DS4 /// KIR3DL3 /// KIR3DL3 /// KIR3DS1 (11738374_at) / Fold change /veh KIR2DL2 /// KIR2DL4 /// KIR2DL5A /// KIR2DL5B /// KIR2DS1 /// KIR2DS2 /// KIR2DS3 /// KIR2DS4 /// KIR3DL3 /// KIR3DL3 /// KIR3DS1 (11738374_at) / RFU C1QL1 (11718748_at) / Fold change /veh C1QL1 (11718748_at) / RFU TMPRSS4 (11747572_a_at) / Fold change /veh TMPRSS4 (11747572_a_at) / RFU HAMP (11756126_x_at) / Fold change /veh HAMP (11756126_x_at) / RFU RNFT2 (11725882_a_at) / Fold change /veh RNFT2 (11725882_a_at) / RFU NR4A2 (11747474_a_at) / Fold change /veh NR4A2 (11747474_a_at) / RFU ABCC12 (11746883_a_at) / Fold change /veh ABCC12 (11746883_a_at) / RFU TMEM136 (11760407_x_at) / Fold change /veh TMEM136 (11760407_x_at) / RFU CLDN22 /// WWC2 (11732394_at) / Fold change /veh CLDN22 /// WWC2 (11732394_at) / RFU HLA-DPB1 (11760878_x_at) / Fold change /veh HLA-DPB1 (11760878_x_at) / RFU SPINT1 (11716480_a_at) / Fold change /veh SPINT1 (11716480_a_at) / RFU GAP43 (11754022_s_at) / Fold change /veh GAP43 (11754022_s_at) / RFU A4GNT (11735810_at) / Fold change /veh A4GNT (11735810_at) / RFU PRB3 (11715151_x_at) / Fold change /veh PRB3 (11715151_x_at) / RFU TUBB4B (11761932_at) / Fold change /veh TUBB4B (11761932_at) / RFU CAPN14 (11732068_a_at) / Fold change /veh CAPN14 (11732068_a_at) / RFU TMCC2 (11721928_a_at) / Fold change /veh TMCC2 (11721928_a_at) / RFU IRGQ (11745062_a_at) / Fold change /veh IRGQ (11745062_a_at) / RFU FAM174B (11720279_a_at) / Fold change /veh FAM174B (11720279_a_at) / RFU TMPRSS4 (11748680_a_at) / Fold change /veh TMPRSS4 (11748680_a_at) / RFU FAM212B (11763350_a_at) / Fold change /veh FAM212B (11763350_a_at) / RFU PLEKHG5 (11743358_a_at) / Fold change /veh PLEKHG5 (11743358_a_at) / RFU ZSCAN30 (11745921_a_at) / Fold change /veh ZSCAN30 (11745921_a_at) / RFU CMKLR1 (11741424_a_at) / Fold change /veh CMKLR1 (11741424_a_at) / RFU LOC101060620 /// MAPK8IP1 (11723275_at) / Fold change /veh LOC101060620 /// MAPK8IP1 (11723275_at) / RFU SPTSSB (11747773_x_at) / Fold change /veh SPTSSB (11747773_x_at) / RFU PRSS12 (11739890_at) / Fold change /veh PRSS12 (11739890_at) / RFU BIN1 (11741810_x_at) / Fold change /veh BIN1 (11741810_x_at) / RFU WNT11 (11732464_a_at) / Fold change /veh WNT11 (11732464_a_at) / RFU C10orf10 (11716521_a_at) / Fold change /veh C10orf10 (11716521_a_at) / RFU C5orf56 (11738089_at) / Fold change /veh C5orf56 (11738089_at) / RFU CYB561 (11721691_x_at) / Fold change /veh CYB561 (11721691_x_at) / RFU ANKRD19P (11752326_a_at) / Fold change /veh ANKRD19P (11752326_a_at) / RFU OR2T12 /// OR2T33 /// OR2T8 (11738714_s_at) / Fold change /veh OR2T12 /// OR2T33 /// OR2T8 (11738714_s_at) / RFU VCAN (11748164_a_at) / Fold change /veh VCAN (11748164_a_at) / RFU JSRP1 (11732532_at) / Fold change /veh JSRP1 (11732532_at) / RFU KRTAP10-11 (11738290_x_at) / Fold change /veh KRTAP10-11 (11738290_x_at) / RFU MYO3A (11730013_a_at) / Fold change /veh MYO3A (11730013_a_at) / RFU EBF3 (11725865_a_at) / Fold change /veh EBF3 (11725865_a_at) / RFU CAMK2N1 (11719241_x_at) / Fold change /veh CAMK2N1 (11719241_x_at) / RFU C5orf56 (11738088_a_at) / Fold change /veh C5orf56 (11738088_a_at) / RFU OLFML3 (11715873_a_at) / Fold change /veh OLFML3 (11715873_a_at) / RFU LOC100653217 /// NTM (11731650_a_at) / Fold change /veh LOC100653217 /// NTM (11731650_a_at) / RFU MAPK11 (11762145_a_at) / Fold change /veh MAPK11 (11762145_a_at) / RFU FIZ1 (11724087_x_at) / Fold change /veh FIZ1 (11724087_x_at) / RFU OASL (11726364_x_at) / Fold change /veh OASL (11726364_x_at) / RFU SOX15 (11748057_x_at) / Fold change /veh SOX15 (11748057_x_at) / RFU CD79A (11719716_a_at) / Fold change /veh CD79A (11719716_a_at) / RFU HIST1H1D (11736915_at) / Fold change /veh HIST1H1D (11736915_at) / RFU CASKIN2 (11723855_a_at) / Fold change /veh CASKIN2 (11723855_a_at) / RFU LOC730098 (11760151_x_at) / Fold change /veh LOC730098 (11760151_x_at) / RFU OR4N2 (11742367_at) / Fold change /veh OR4N2 (11742367_at) / RFU PRRT2 (11749266_a_at) / Fold change /veh PRRT2 (11749266_a_at) / RFU SNX32 (11753110_a_at) / Fold change /veh SNX32 (11753110_a_at) / RFU CDHR5 (11726645_a_at) / Fold change /veh CDHR5 (11726645_a_at) / RFU RCAN1 (11760418_a_at) / Fold change /veh RCAN1 (11760418_a_at) / RFU FAM167A (11723789_a_at) / Fold change /veh FAM167A (11723789_a_at) / RFU FAM26E (11764081_at) / Fold change /veh FAM26E (11764081_at) / RFU ISYNA1 (11749810_s_at) / Fold change /veh ISYNA1 (11749810_s_at) / RFU ACY1 (11761880_at) / Fold change /veh ACY1 (11761880_at) / RFU 11764098_at / Fold change /veh 11764098_at / RFU SAMD14 (11745864_x_at) / Fold change /veh SAMD14 (11745864_x_at) / RFU NPB (11741838_a_at) / Fold change /veh NPB (11741838_a_at) / RFU TMPRSS6 (11731388_a_at) / Fold change /veh TMPRSS6 (11731388_a_at) / RFU KRTAP10-2 (11738614_at) / Fold change /veh KRTAP10-2 (11738614_at) / RFU ARHGAP8 /// PRR5-ARHGAP8 (11727945_x_at) / Fold change /veh ARHGAP8 /// PRR5-ARHGAP8 (11727945_x_at) / RFU KRTAP5-7 /// NADSYN1 (11734609_at) / Fold change /veh KRTAP5-7 /// NADSYN1 (11734609_at) / RFU RASL12 (11751679_a_at) / Fold change /veh RASL12 (11751679_a_at) / RFU CDKN2B (11736163_a_at) / Fold change /veh CDKN2B (11736163_a_at) / RFU PRF1 (11729649_at) / Fold change /veh PRF1 (11729649_at) / RFU, ZNF638 /// ZNF638-IT1 / Fold change vs veh, ZNF638 /// ZNF638-IT1 / RFU, PANK3 / Fold change vs veh, PANK3 / RFU, SH3YL1 / Fold change vs veh, SH3YL1 / RFU, ZEB2 / Fold change vs veh, ZEB2 / RFU, NRIP1 / Fold change vs veh, NRIP1 / RFU, PTTG1IP / Fold change vs veh, PTTG1IP / RFU, CAPN2 / Fold change vs veh, CAPN2 / RFU, MED14 / Fold change vs veh, MED14 / RFU, SNORA58 / Fold change vs veh, SNORA58 / RFU, C1orf63 / Fold change vs veh, C1orf63 / RFU, LRRFIP1 / Fold change vs veh, LRRFIP1 / RFU, NDUFAF7 / Fold change vs veh, NDUFAF7 / RFU, SLC12A2 / Fold change vs veh, SLC12A2 / RFU, IBTK / Fold change vs veh, IBTK / RFU, ESF1 / Fold change vs veh, ESF1 / Fold change vs veh, TMEM50B / RFU, TAOK1 / Fold change vs veh, TAOK1 / RFU, ACBD3 / Fold change vs veh, ACBD3 / RFU, TMA16 / Fold change vs veh, TMA16 / RFU, RWDD3 / Fold change vs veh, RWDD3 / RFU, BCAT1 / Fold change vs veh, BCAT1 / RFU, EDEM3 / Fold change vs veh, EDEM3 / RFU, TMEM33 / Fold change vs veh, TMEM33 / RFU, WDR75 / Fold change vs veh, WDR75 / RFU, AHCTF1 / Fold change vs veh, AHCTF1 / RFU, TFRC / Fold change vs veh, TFRC / RFU, ZDHHC17 / Fold change vs veh, ZDHHC17 / RFU, NOM1 / Fold change vs veh, NOM1 / RFU, ARL8B / Fold change vs veh, ARL8B / RFU, ZBTB11 / Fold change vs veh, ZBTB11 / RFU, TAMM41 / Fold change vs veh, TAMM41 / RFU, KIAA1704 /// LOC100996395 / Fold change vs veh, KIAA1704 /// LOC100996395 / RFU, ING1 / Fold change vs veh, ING1 / RFU, TRMT61B / Fold change vs veh, TRMT61B / RFU, FUBP3 / Fold change vs veh, FUBP3 / RFU, TP53 / Fold change vs veh, TP53 / RFU, TNKS2 / Fold change vs veh, TNKS2 / RFU, ZFP14 / Fold change vs veh, ZFP14 / RFU, ACTR2 / Fold change vs veh, ACTR2 / RFU, PPP3R1 / Fold change vs veh, PPP3R1 / RFU, PIK3R1 / Fold change vs veh, PIK3R1 / RFU, HNRNPA1 / Fold change vs veh, HNRNPA1 / RFU, RNF170 / Fold change vs veh, RNF170 / RFU, ZNF28 / Fold change vs veh, ZNF28 / RFU, RNGTT / Fold change vs veh, RNGTT / RFU, OGT / Fold change vs veh, OGT / RFU, BRD1 / Fold change vs veh, BRD1 / RFU, MARS / Fold change vs veh, MARS / RFU, ZNF655 / Fold change vs veh, ZNF655 / RFU, FAHD1 / Fold change vs veh, FAHD1 / RFU, BDP1 / Fold change vs veh, BDP1 / RFU, LRRCC1 / Fold change vs veh, LRRCC1 / RFU, ARID1A / Fold change vs veh, ARID1A / RFU, ZNF146 / Fold change vs veh, ZNF146 / RFU, ZNF330 / Fold change vs veh, ZNF330 / RFU, GPN3 / Fold change vs veh, GPN3 / RFU, C9orf123 / Fold change vs veh, C9orf123 / RFU, N4BP2L2 / Fold change vs veh, N4BP2L2 / RFU, ARFIP1 / Fold change vs veh, ARFIP1 / RFU, FAM179B / Fold change vs veh, FAM179B / RFU, BCL10 / Fold change vs veh, BCL10 / RFU, UHRF1BP1L / Fold change vs veh, UHRF1BP1L / RFU, BET1 / Fold change vs veh, BET1 / RFU, CNOT2 / Fold change vs veh, CNOT2 / RFU, ZNF268 / Fold change vs veh, ZNF268 / Fold change vs veh, ZNF507 / RFU, DGCR2 / Fold change vs veh, DGCR2 / RFU, WDSUB1 / Fold change vs veh, WDSUB1 / Fold change vs veh, HSP90B1 /// MIR3652 / RFU, ADSS / Fold change vs veh, ADSS / RFU, GK / Fold change vs veh, GK / RFU, ZNF148 / Fold change vs veh, ZNF148 / RFU, TAF9 / Fold change vs veh, TAF9 / RFU, SLC1A5 / Fold change vs veh, SLC1A5 / RFU, SLMO2 / Fold change vs veh, SLMO2 / RFU, ABCC4 / Fold change vs veh, ABCC4 / RFU, LOC101060439 /// RAP1B / Fold change vs veh, LOC101060439 /// RAP1B / RFU, RFX7 / Fold change vs veh, RFX7 / RFU, GTPBP10 / Fold change vs veh, GTPBP10 / RFU, CNEP1R1 / Fold change vs veh, CNEP1R1 / RFU, BIVM-ERCC5 /// ERCC5 / Fold change vs veh, BIVM-ERCC5 /// ERCC5 / RFU, ILF3 / Fold change vs veh, ILF3 / RFU 11762660_at / Fold change /veh 11762660_at / RFU VCAN (11757783_s_at) / Fold change /veh VCAN (11757783_s_at) / RFU DDX43 (11728927_at) / Fold change /veh DDX43 (11728927_at) / RFU KRT8 (11758188_x_at) / Fold change /veh KRT8 (11758188_x_at) / RFU NKD1 (11759106_at) / Fold change /veh NKD1 (11759106_at) / RFU SRD5A1 (11742802_a_at) / Fold change /veh SRD5A1 (11742802_a_at) / RFU TPSAB1 /// TPSB2 (11721975_s_at) / Fold change /veh TPSAB1 /// TPSB2 (11721975_s_at) / RFU GSTM3 (11746129_a_at) / Fold change /veh GSTM3 (11746129_a_at) / RFU IL23R (11737362_x_at) / Fold change /veh IL23R (11737362_x_at) / RFU TMEM51 (11727254_a_at) / Fold change /veh TMEM51 (11727254_a_at) / RFU PIWIL2 (11732686_x_at) / Fold change /veh PIWIL2 (11732686_x_at) / RFU ORM1 (11744905_x_at) / Fold change /veh ORM1 (11744905_x_at) / RFU CCDC152 (11743942_at) / Fold change /veh CCDC152 (11743942_at) / RFU ECM1 (11717891_a_at) / Fold change /veh ECM1 (11717891_a_at) / RFU IL23R (11748794_a_at) / Fold change /veh IL23R (11748794_a_at) / RFU TNFAIP8L3 (11732012_x_at) / Fold change /veh TNFAIP8L3 (11732012_x_at) / RFU MBOAT4 (11741988_at) / Fold change /veh MBOAT4 (11741988_at) / RFU 11764193_at / Fold change /veh 11764193_at / RFU TMEM53 (11763286_at) / Fold change /veh TMEM53 (11763286_at) / RFU MAGEB2 (11727129_at) / Fold change /veh MAGEB2 (11727129_at) / RFU TMEM200A (11744735_a_at) / Fold change /veh TMEM200A (11744735_a_at) / RFU CCDC152 (11751479_a_at) / Fold change /veh CCDC152 (11751479_a_at) / RFU FAM211A (11726209_a_at) / Fold change /veh FAM211A (11726209_a_at) / RFU RGS16 (11746705_a_at) / Fold change /veh RGS16 (11746705_a_at) / RFU VCAN (11755009_s_at) / Fold change /veh VCAN (11755009_s_at) / RFU RHOB (11743442_s_at) / Fold change /veh RHOB (11743442_s_at) / RFU RGS16 (11720943_a_at) / Fold change /veh RGS16 (11720943_a_at) / RFU RGS16 (11720944_at) / Fold change /veh RGS16 (11720944_at) / RFU, VPS4B / Fold change vs veh, VPS4B / RFU, CREB1 / Fold change vs veh, CREB1 / RFU, DNAJC13 / Fold change vs veh, DNAJC13 / RFU, GNAQ / Fold change vs veh, GNAQ / RFU, CDK5R1 / Fold change vs veh, CDK5R1 / RFU, ZRANB3 / Fold change vs veh, ZRANB3 / RFU, CUL4A / Fold change vs veh, CUL4A / RFU, CCNY / Fold change vs veh, CCNY / RFU, UFL1 / Fold change vs veh, UFL1 / RFU, COG3 / Fold change vs veh, COG3 / RFU, DIAPH2 / Fold change vs veh, DIAPH2 / RFU, SKA2 / Fold change vs veh, SKA2 / RFU, AFF3 / Fold change vs veh, AFF3 / RFU, LMF1 / Fold change vs veh, LMF1 / RFU, IPO11 / Fold change vs veh, IPO11 / RFU, DFFB / Fold change vs veh, DFFB / RFU, FOXP1 / Fold change vs veh, FOXP1 / RFU, CARD8 / Fold change vs veh, CARD8 / RFU, STRN3 / Fold change vs veh, STRN3 / RFU, ADK / Fold change vs veh, ADK / RFU, RASSF2 / Fold change vs veh, RASSF2 / RFU, WIPF1 / Fold change vs veh, WIPF1 / RFU, LARP1B / Fold change vs veh, LARP1B / RFU, RASA1 / Fold change vs veh, RASA1 / RFU, RB1 / Fold change vs veh, RB1 / RFU, PPFIA1 / Fold change vs veh, PPFIA1 / RFU, MAT2A / Fold change vs veh, MAT2A / RFU, CCT5 / Fold change vs veh, CCT5 / RFU, WDR92 / Fold change vs veh, WDR92 / RFU, CUX1 / Fold change vs veh, CUX1 / RFU, TTC7A / Fold change vs veh, TTC7A / RFU, TMEM135 / Fold change vs veh, TMEM135 / RFU, DEPTOR / Fold change vs veh, DEPTOR / RFU, CPM / Fold change vs veh, CPM / RFU, DNAJB6 / Fold change vs veh, DNAJB6 / RFU, CACNA2D3 / Fold change vs veh, CACNA2D3 / RFU, DTX4 / Fold change vs veh, DTX4 / RFU, TFCP2 / Fold change vs veh, TFCP2 / RFU, GMCL1 /// GMCL1P1 / Fold change vs veh, GMCL1 /// GMCL1P1 / RFU, AEBP2 / Fold change vs veh, AEBP2 / RFU, SNHG1 /// SNORD22 /// SNORD25 /// SNORD26 /// SNORD27 /// SNORD28 /// SNORD29 /// SNORD31 / Fold change vs veh, SNHG1 /// SNORD22 /// SNORD25 /// SNORD26 /// SNORD27 /// SNORD28 /// SNORD29 /// SNORD31 / Fold change (Aza/veh), C12orf56 (ProbeSet 11735607_a_at) / Fold change (ACY-1035/veh), C12orf56 (ProbeSet 11735607_a_at) / Fold change (Aza/veh), FGFR1OP (ProbeSet 11751329_s_at) / Fold change (ACY-1035/veh), FGFR1OP (ProbeSet 11751329_s_at) / Fold change (Aza/veh), VPS36 (ProbeSet 11739960_a_at) / Fold change (ACY-1035/veh), VPS36 (ProbeSet 11739960_a_at) / RFU SYPL1 (11715823_x_at) / Fold change /veh SYPL1 (11715823_x_at) / RFU IGFBP7 (11715501_s_at) / Fold change /veh IGFBP7 (11715501_s_at) / RFU REEP3 (11722064_at) / Fold change /veh REEP3 (11722064_at) / RFU IGLL1 (11728026_x_at) / Fold change /veh IGLL1 (11728026_x_at): dose or concentration left out as unconfirmed
Conditions: MV-4-11 cells, 48 hours

Structure (SMILES): Nc1ncn([C@@H]2O[C@H](CO)[C@@H](O)[C@H]2O)c(=O)n1 [azacitidine]
- RFU IGLL1 (11728026_x_at): 12.85 RFU
